In ChEMBL document CHEMBL1145046, “Structure-activity relationships in carboxamide derivatives based on the targeted delivery of radionuclides and boron atoms by means of peripheral benzodiazepine receptor ligands” (J Med Chem, 2003) one finds IC50 data, which are given here for 16 compounds.

For this experiment, the target named is Translocator protein (Rattus norvegicus, UniProt P16257). The experiment can be described thus: Inhibitory activity against specific binding of [3H]-CB 34 to peripheral benzodiazepine receptor in rat cortical membranes was evaluated. It is filed as cell membranes, Membrane.
Sequence of Translocator protein (P16257 whole entry, looked up): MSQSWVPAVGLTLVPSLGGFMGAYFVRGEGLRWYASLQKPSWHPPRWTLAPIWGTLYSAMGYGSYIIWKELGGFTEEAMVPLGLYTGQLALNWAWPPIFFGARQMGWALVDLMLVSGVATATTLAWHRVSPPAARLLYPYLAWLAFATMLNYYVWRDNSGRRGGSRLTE

For the compound `CCN(CC)Cc1c(C(=O)N(C)Cc2ccccc2)nc2ccccc2c1-c1ccccc1`, the half-inhibitory concentration (IC50) (as a rule, the midpoint of a concentration-inhibition curve) was found to be 12 nM.

In the case of `CCN(Cc1ccccc1)Cc1c(C(=O)N(C)Cc2ccccc2)nc2ccccc2c1-c1ccccc1`, the half-maximal inhibitory concentration (IC50) came to 13 nM.

Compound `CN(Cc1ccccc1)C(=O)c1cc(-c2ccccc2)c2ccccc2n1` displayed a concentration for half-maximal inhibition (IC50) of 38 nM.

As for `CN(Cc1ccccc1)C(=O)c1cc(-c2ccccc2)c2ccccc2c1`, the IC50 is 64 nM.

As to `O=C(NCc1ccccc1)c1cc(-c2ccccc2)c2ccccc2n1`, the concentration for half-maximal inhibition (IC50) was determined as 11500 nM.

On to `Cc1c(C(=O)NCc2ccccc2)nc2ccccc2c1-c1ccccc1`, for which the 50% inhibitory concentration (IC50) came to 10300 nM.

In the case of `Cc1c(C(=O)N(C)Cc2ccccc2)cc2ccccc2c1-c1ccccc1`, the IC50 stood at 9.8 nM.

Compound `Cc1c(C(=O)N(Cc2ccccc2)Cc2ccccc2)nc2ccccc2c1-c1ccccc1` gave a concentration for half-maximal inhibition (IC50) of 11 nM.

`O=C(NCc1ccccc1)c1cc(-c2ccccc2)c2ccccc2c1` displayed an IC50 of 2700 nM.

For `C#CCN(C)C(=O)c1nc2ccccc2c(-c2ccccc2)c1C`, the 50% inhibitory concentration (IC50) is 32 nM.

On to `CN(Cc1ccccc1)C(=O)c1nc2ccccc2c(-c2ccccc2)c1CO`, for which the concentration for half-maximal inhibition (IC50) worked out at 8.7 nM.

As for `Cc1c(C(=O)N(C)Cc2ccccc2)nc2ccccc2c1-c1ccccc1`, the half-inhibitory concentration (IC50) amounted to 4.6 nM.

As for `Cc1c(C(=O)N(C)Cc2ccccc2)nc2ccccc2c1-c1ccccc1F`, the IC50 was determined as 2.2 nM.

Compound `Cc1c(C(=O)NCc2ccccc2)nc2ccccc2c1-c1ccccc1F` came in with a half-inhibitory concentration (IC50) of 1490 nM.

As for `Cc1c(C(=O)NCc2ccccc2)cc2ccccc2c1-c1ccccc1`, the half-maximal inhibitory concentration (IC50) was 6600 nM.

`CN(Cc1ccccc1)C(=O)c1nc2ccccc2c(-c2ccccc2)c1CCl`: the IC50 came to 0.45 nM.
